18 molecules from publication PMC4798226, “Streptococcus pneumoniae Cell-Wall-Localized Phosphoenolpyruvate Protein Phosphotransferase Can Function as an Adhesin: Identification of Its Host Target Molecules and Evaluation of Its Potential as a Vaccine” (PLoS ONE, 2016) can be followed below.

Ends that are not written are not given here.

In assay [1] the test system is S. pneumoniae strain WU2 adhesion to A549 cells. As to the kind of experiment: Inhibition of adhesion of S. pneumoniae strain WU2 to A549 cells. The assay is classed as cell-based, Streptococcus pneumoniae. The note with it: CFU counting. The protocol:
(§1) A549 and D562 cells were cultured on fibronectin-coated 96-well plates (Fig 2 and S2 Fig) or on Ibidi 8 well chambers (Ibidi GmbH, Planegg/Martinsried, Germany; Figs 3, 4 and 5) or on 96-well plates without fibronectin coating (Figs 7 and 8 and S3 Fig), as previously described. Briefly, the cells were seeded at 5 × 10^4 cells/well in DMEM supplemented with 10% fetal calf serum (FCS) (without antibiotics). Twenty four hours later, the cells (~10^5 cells/well) were blocked with 0.5% gelatin for 1 h. rPtsA (0–500 nM) was then added to the cultured cells for 1 h of incubation. Excess protein was removed, and S. pneumoniae bacteria at a MOI of ~10:1 were added for additional 1 h of incubation. The inoculum size was verified in each experiment. […] Following the incubation, excess bacteria were removed, and cells were detached with trypsin and plated onto blood agar plates for counting. All the inhibitors were used at concentrations below their toxic concentrations either to the bacteria or to the cells. Keyhole limpet hemocyanin (KLH) protein was used as a negative control. Experiments were conducted in triplicates and repeated on 3 different occasions.
(§2) Inhibition of adhesion to A549 cells by anti-rPtsA antiserum, phages or peptides was performed as previously described. Briefly, bacteria were incubated for 1 h with rabbit anti-rPtsA antiserum, the phages, or the selected peptides. The bacteria were then added to the cultured human cells for an additional hour. Following this incubation, excess bacteria were removed, and the procedure was continued as described above. All the inhibitors were used at concentrations below their toxic concentrations either to the bacteria or to the cells. Negative controls included pre-immune serum, phage carrying no insert or a non-inhibitory insert, and a scrambled peptide. Each experiment was performed in triplicates and repeated on 3 different occasions and a representative experiment is presented.

Another assay deals with rPtsA (Streptococcus pneumoniae serotype 4, UniProt A0A0H2UQ90). As to the kind of experiment: biochemical. The assay is classed as binding. The protocol: In all cases, 16 serial dilutions of each putative receptor-derived peptide (~90 nM–3.175 mM) were mixed with a constant concentration of 335 nM labeled rPtsA protein. The normalized change in the fluorescence of the labeled rPtsA protein was plotted against the peptide concentration, and a fit was computed by the NTP program. The experiments were performed in triplicate.
rPtsA labeled with fluorescent NT-495 dye at a constant concentration of 335 nM was mixed with sixteen serial dilutions (~90 nM–3.175 mM) of peptides derived from PCDH19, MMRN1, Eps1, Int β and BMPER. Contactin 4, was used as a negative control. MST analysis was performed using Monolith NT.115 (NanoTemper Technologies GmbH, München, Germany). The normalized change in the fluorescence of bound and unbound labeled rPtsA (ΔF) is indicative of the peptide binding. Plotting ΔF vs. peptide concentration facilitated the generation the dissociation curves, computed by the NTP program. In this way the Kd, reflecting the affinity of each of the peptides for rPtsA, was obtained. […] Each experiment was performed in triplicate.

Assay [2] concerns S. pneumoniae adhesion to A549 cells. Briefly: Inhibition of adhesion of S. pneumoniae to A549 cells, strain not stated (scrambled peptide control). The settings on record: bacteria treated 1 h with peptide, added to A549 cells for 1 h; CFU counting; strain not printed (Fig 8K). The assay is classed as cell-based, Streptococcus pneumoniae. As to the method: as §1
Fig 8 Inhibition of adhesion of S. pneumoniae cells to A549 cells by target-derived peptides. […]

The test system of assay [3] is S. pneumoniae strain 3.8DW adhesion to A549 cells. As to the kind of experiment: Inhibition of adhesion of S. pneumoniae strain 3.8DW to A549 cells. The assay is classed as cell-based, Streptococcus pneumoniae. The note with it: bacteria treated 1 h with peptide, added to A549 cells (plates without fibronectin coating) for 1 h; CFU counting. The protocol: as §1, §2

Assay [4] concerns S. pneumoniae strain D39 adhesion to A549 cells. Briefly: Inhibition of adhesion of S. pneumoniae strain D39 to A549 cells. The note with it: bacteria treated 1 h with peptide, added to A549 cells (plates without fibronectin coating) for 1 h; CFU counting. The assay is classed as cell-based, Streptococcus pneumoniae. As to the method: as §1
(§3) Inhibition of adhesion to A549 cells by anti-rPtsA antiserum, phages or peptides was performed as previously described. Briefly, bacteria were incubated for 1 h with rabbit anti-rPtsA antiserum, the phages, or the selected peptides. […]

The test system of another assay is S. pneumoniae strain WU2. As to the kind of experiment: Nasopharyngeal and lung colonization of CBA/N^xid mice after intranasal inoculation of peptide-pretreated strain WU2. The assay is classed as in vivo, Streptococcus pneumoniae. As to the method: BALB/c (highly resistant to S. pneumonia) or CBA/N^xid (highly susceptible to S. pneumoniae) mice strains were immunized subcutaneously (SC) with 25 μg of rPtsA emulsified with complete Freund’s adjuvant (CFA) and subsequently boosted (days 14 and 28) with incomplete Freund’s adjuvant (IFA). On day 42, the BALB/c and CBA/N^xid mice were challenged intranasally (IN), under deep anesthesia using Isoflurane (Piramal Critical Care Inc., PA, USA), with a sublethal dose of strain WU2 (5 × 10^7 and 5 ×x 10^5, respectively). Mice were humanely sacrificed 3 and 24 h later by CO2 asphyxiation, as recommended by the AVMA Guidelines for Euthanasia in Animals: 2013 Edition (https://www.avma.org/KB/Policies/Documents/euthanasia.pdf). Strain WU2 cells were pretreated with the respective peptides and then inoculated IN into adult CBA/N^xid mice. Mice were euthanized 3, 24 or 48 h later with CO2. The nasopharynx and right lobe lung were excised, homogenized and plated onto blood agar plates for bacterial colony counting. For survival experiments, after an immunization regime similar to that described above, BALB/c or CBA/N^xid mice were challenged with a lethal dose of strain WU2 either IN (10^8 CFU and 10^6 CFU, respectively) or intravenously (10^4 CFU). […] The following criteria were considered sufficient evidence of distress to warrant such intervention in order to minimize pain and suffering of the animals: severe weight loss (20% body weight); reluctance or inability to move freely; appearance of bristle fur; social disengagement; refusal or inability to eat or drink. No analgesic treatment was provided, as such treatment may alter the immune response and may independently affect the outcome of the experiments.
Strain WU2 cells were pretreated with Eps 1, BMPER and PCDH19 peptides and then inoculated IN into adult CBA/N^xid mice. Mice were euthanized 3, 24 or 48 h later. The nasopharynx and lungs were excised, homogenized and plated onto blood agar plates for counting. As a control, another group of mice was injected with bacteria treated ex vivo for 1 h with PBS alone.
Fig 9 Effects of target-derived peptides on nasopharyngeal and lung colonization and survival in mice. Strain WU2 cells were pretreated with peptide and then inoculated IN into adult CBA/N^xid mice. As a control, another group of mice was injected with bacteria treated ex vivo for 1 h with PBS alone. Mice were euthanized 3, 24 or 48 h later. The nasopharynx and lungs were excised, homogenized and plated onto blood agar plates for counting. […]

The test system of assay [5] is S. pneumoniae strain WU2 adhesion to Detroit 562 cells. As to the kind of experiment: Inhibition of adhesion of S. pneumoniae strain WU2 to Detroit 562 cells. The assay is classed as cell-based, Streptococcus pneumoniae. The settings on record: bacteria treated 1 h with peptide, added to Detroit 562 cells for 2 h; CFU counting; 3–6 replicates.
For assay [6], the system named is S. pneumoniae strain R6 adhesion to A549 cells. Briefly: Inhibition of adhesion of S. pneumoniae strain R6 to A549 cells. The assay is classed as cell-based, Streptococcus pneumoniae. The note with it: bacteria treated 1 h with peptide, added to A549 cells (plates without fibronectin coating) for 1 h; CFU counting. The protocol:
as §1, §3

In assay [7] the target is HAT-tagged recombinant phosphoenolpyruvate protein phosphotransferase (rPtsA) (Streptococcus pneumoniae (serotype 3 strain WU2)). As to the kind of experiment: MST; labeled rPtsA (NT-495 dye) constant at 335 nM; 16 serial dilutions of each peptide (~90 nM–3.175 mM); Monolith NT.115; triplicate.
Setting [8] is: bacteria incubated 1 h with antiserum or phage, then added to gelatin-blocked A549 cells (fibronectin-coated plates) for 1 h.
Where [9] appears, read: WU2 pretreated with Eps 1 (14.7 μM), versus sham-treated (PBS) bacteria.
Where [10] appears, read: WU2 pretreated with peptide (Eps 1 14.7 μM; BMPER 7 and 14 μM; PCDH19 14.7 and 27.4 μM), versus sham-treated bacteria.
Setting [11] is: bacteria treated 1 h with peptide, added to A549 cells (96-well plates without fibronectin coating) for 1 h.

ADDESPEMKPGX [phage D8]: in [1] (setting [8]), the “Inhibition of adhesion of strain WU2 to A549 cells” value was “inhibited”.

In the case of ADGGVPV [phage H10], the “Inhibition of adhesion of strain WU2 to A549 cells” value in [1] (setting [8]) is “inhibited”. In addition, the “Reduction in adhesion of strain WU2 to A549 cells” value in assay [1] (phage incubated with strain WU2 for 1 h, added to A549 cells, in comparison to adhesion of bacteria without inhibitors) worked out at 75%.

Regarding AVVVNDANRTRK [phage D3], the “Inhibition of adhesion of strain WU2 to A549 cells” value in assay [1] (setting [8]) is “inhibited”. On the same count and under the same terms, the value for DQRPAXRRMYRA [phage D10] was “inhibited”. One may read the Kd as the equilibrium constant for the complex coming apart. On to DQVARIPVIRRV [Intβ4], for which, at rPtsA, the Kd was 115 ± 20.5 µM. With LDSIRIIVIRRI [phage H9], in [1] (setting [8]), the “Inhibition of adhesion of strain WU2 to A549 cells” value is on record as “inhibited”.

For LPADWATTLMVCSSK [scrambled peptide], the “Inhibition of adhesion of S. pneumoniae to A549 cells” value in assay [2] is “No significant inhibition”. In the case of SDGGVPV [Eps 1], in assay [3], the “Inhibition of adhesion of strain 3.8DW to A549 cells” value is “significantly inhibited”. The “Inhibition of adhesion of strain D39 to A549 cells” value in assay [4] is “significantly inhibited”. Also, in the assay on S. pneumoniae strain WU2 (setting [9]), the “Bacterial load in the lungs, 3 h post inoculation” value was “significant reduction” and the “Bacterial load in the nasopharynx, 3 h post inoculation” value is on record as “significant reduction”. Also, in the assay with S. pneumoniae strain WU2 (setting [10]), the “Bacterial load in the lungs, 48 h post inoculation” value is recorded as “significant reduction” and the “Bacterial load in the nasopharynx, 48 h post inoculation” value is on record as “significant reduction”. In assay [1] (setting [11]), the “Inhibition of adhesion of strain WU2 to A549 cells” value is reported as “significantly inhibited”. Further, the “Inhibition of adhesion of strain WU2 to Detroit 562 cells” value in assay [5] is “significant inhibition”. Further, the “Inhibition of adhesion of strain R6 to A549 cells” value in [6] was “significantly inhibited”. TEQVSDQKNAPA [MMRN1]: the “Inhibition of adhesion of strain 3.8DW to A549 cells” value in assay [3] is “significant inhibition”. Also, the “Inhibition of adhesion of strain WU2 to A549 cells” value in assay [1] (setting [11]) is “significant inhibition”. As for TXQVSNHKNHTN [phage E6], the “Inhibition of adhesion of strain WU2 to A549 cells” value in assay [1] (setting [8]) was “inhibited”.

On to VLVKNDARRTRS [BMPER], for which, on rPtsA, the affinity, expressed as Kd, was 21 ± 5.49 µM. For the molecule VVVSDATRVRVA [Col VII], the “Inhibition of adhesion of strain 3.8DW to A549 cells” value in assay [3] is listed as “significant inhibition”. Also, the “Inhibition of adhesion of strain WU2 to A549 cells” value in [1] (setting [11]) is “significant inhibition”. As to “WECKANGRPKPTY [Contactin 4-derived peptide, reference compound]”, the “Kd (affinity of rPtsA binding to peptide)” value at rPtsA (MST, Monolith NT.115, 335 nM NT-495-labeled rPtsA, 16 serial dilutions of peptide ~90 nM–3.175 mM, fit by NTP program, triplicate) is given as “a fit could not be generated”. With DGGVPML [PCDH19-derived peptide], the Kd in assay [7] was 58 µM. Still for that read-out and setting: as for SDGGVPV [Eps 1-derived peptide], the figure is 43.9 µM; as for TEQVSDQKNAPA [MMRN1-derived peptide], 391 µM; as for VLVKNDARRTRS [BMPER-derived peptide], 21 µM. Still for that read-out and setting: the value for DQVARIPVIRRV [Int β4-derived peptide] was 115 µM.
